Read-outs that look alike come from different tables or passages of the source.
Legend:
[1] = test system: myeloid hematopoietic progenitor cells derived from human bone marrow; test: myeloid colony formation of hematopoietic progenitor cells; type: cell-based
Method: (§1) Compound 1 was evaluated for its effects on proliferation of erythroid and myeloid hematopoietic progenitor cells derived from human bone marrow at […] Technologies Inc. (Vancouver, BC, Canada).
(§2) Cells were thawed rapidly at 37° C. into DNAse I and then diluted in 10 mL of Iscove's Modified Dulbecco's medium containing 2% fetal bovine serum (IMDM+2% FBS) and washed by centrifugation (1200 rpm for 10 minutes at room temperature). The supernatant was discarded and the cell pellet resuspended in a known volume of IMDM+2% FBS. A nucleated cell count (3% glacial acetic acid) and viability assessment (trypan blue exclusive test) were performed.
(§3) Compound 1 and positive control (panobinostat) were diluted in DMSO and tested at concentrations ranging from 0.002 μM to 5 μM in final media. These dilutions provided the appropriate final test concentrations required for the test and control articles ([…], and 0.002 μM).
(§4) Test and control articles were incubated with human bone marrow hematopoietic progenitor cells. After 14 days, cell colonies were assessed.
(§5) To calculate the concentration of 50% and 90% inhibition of colony growth (IC50 and IC90) for each test article, a dose response curve was generated plotting the log of the test article concentration versus the percentage of control colony growth using GraphPad Prism. […] The IC50 and IC90 values for both test and control articles were derived from an interpolation of the curve fit. In cases where the IC50/90 value reported by GraphPad Prism is a value beyond the range of concentrations that were actually tested, if this value is more than 4 times the highest concentration tested, or where GraphPad Prism cannot calculate an IC50/90 value, notations of >5 μM (for test article compound 1) are used.

[2] = test system: gene expression (PNUTS, ANK1, IBA57, SOWAHD, MF12-AS1, CECR1); test: RNA-seq analysis of pharmacodynamic biomarkers in diffuse large B-Cell Lymphoma xenografts; type: in vivo
Description: RNA-seq and ChIP-seq analyses were employed to identify potential clinical pharmacodynamic (PD) biomarkers as molecular indicators for monitoring the effects of treatment with Compound 1.
[…] In the ChIP-seq analysis, 65 genes were identified to show direct KDM4C promoter occupancy.

[3] = test system: erythroid hematopoietic progenitor cells derived from human bone marrow; test: erythroid colony formation of hematopoietic progenitor cells; type: cell-based
Method: as §1, §2, §3, §4, §5

[4] = test system: tumorigenic CD44^High;EpCAM^+ cells of SU60 xenograft tumors; test: flow cytometry analysis of tumorigenic cell population after treatment of SU60 xenograft tumors; type: in vivo; conditions: NSG female mice, 40 mg/kg PO QD x21
Method: The ability of Compound 1 to affect tumorigenic potential was analyzed by flow cytometry analysis of the tumorigenic cell population and functional in vivo tumorigenicity assay (limiting dilution assay).
To assess the effect of Compound 1 on tumorigenic cell population, Compound 1 was used to treat SU60 xenograft tumors. NSG female mice engrafted with SU60 cells (7 mice each group) were administered Compound 1 at 40 mg/kg PO QD×21. The day after the last dose, three tumors nearest to the mean size from each group were dissociated and the single cells were used to perform: 1) flow cytometry analysis of the tumorigenic cell population and 2) functional in vivo tumorigenicity assay (limiting dilution assay). Flow Cytometry Analysis of Tumorigenic Cell Population after Compound 1 Treatment
The proportion of tumorigenic CD44^High;EpCAM^+ cells in the cell population was quantified by flow cytometry. […] Flow cytometry analysis performed on single cell isolated from 3 vehicle-treated and 3 Compound 1-treated tumors. P-value was determined with unpaired Student T-test.

MCF-7 = test: cell-proliferation assay (MTS), MCF-7; type: cell-based; conditions: MCF-7, human breast carcinoma
Method: (§6) Compound 1 was evaluated in in vitro cell-proliferation assays (BrdU assay, MTS assay, or Cell Titer Glo (CTG) assay) in multiple cancer cell lines and patient-derived organoid models to determine half-maximal inhibitory concentrations (IC50s).
(§7) Viability and BrdU thymidine incorporation assays were performed in multiwell plates seeded with cells in growth medium. After seeding, multiwell plates were cultured for 24 hours in a humidified incubator at 37° C. to promote adherence. […] The cultures were incubated for 168 hours after which the number of viable cells or the amount of thymidine incorporation in each test well was assessed by the methods as indicated above. Readouts were performed using an EnVision® Multilabel Reader (PerkinElmer, Waltham, MA) and the results were expressed as a percent of the negative control. Percent of Control values were plotted against the corresponding Compound 1 concentration and the relative IC50 value was determined from a non-linear regression curve as the concentration where inhibition was half-maximal. For cell lines where the number of IC50 determinations exceeded one, the IC50 was expressed as the mean IC50±SD.
(§8) Half-maximal inhibitory concentration (IC50) values for Compound 1 inhibition of cell proliferation were determined for nine cancer cell lines and one normal human fibroblastcell line.

[5] = test system: PA0143F patient-derived pancreatic cancer organoid model; test: organoid colony formation assay, PA0143F; type: cell-based, human
Method: The IC50 values for Compound 1 inhibition of colony formation and viability were determined for the patient-derived colon cancer organoid models: SU60, T002C, SU62, SU34, SU103, T03SC, and SU106, patient-derived pancreatic cancer organoid models PA016SF, PA0143F, T016P, and T028P, and a patient-derived breast cancer organoid model FS5S3.
Colony formation and viability assays were performed in multiwell plates seeded with organoids using an in vitro culture system composed of a Matrigel layer, media containing a defined set of growth factors, and co-culture with Wnt3 A-secreting mouse embryonic fibroblasts. Assays were initiated by adding either DMSO as a negative control, or an inhibitor panobinostatat 100×IC50 concentration as a positive control, or serially diluted Compound 1. The cultures were incubated for 168 or 144 hours after which the number of viable organoids in each test well was assessed respectively using one of two detection methods: CTG or staining with calcein-AM followed by imaging and colony counting. Colony count or viability of cells treated with compound 1 was expressed as a percent of the negative control. Aggregated Percent of Control values were plotted against the corresponding Compound 1 concentration and the absolute IC50 value was determined from a non-linear regression curve as the concentration where inhibition was 50% of the control.

HT-29 = test: cell-proliferation assay (BrdU, CTG), HT-29; type: cell-based; conditions: HT-29, human colorectal adenocarcinoma, mean
Method: as §6, §7, §8

ZR-75-1 = test: cell-proliferation assay (MTS), ZR-75-1; type: cell-based; conditions: ZR-75-1, human breast carcinoma, 168 hours
Method: as §6, §7, §8

[6] = 336 h, human bone marrow progenitor cells, colony growth after 14 days
[7] = progenitor cells from normal human bone marrow, p>0.01
[8] = in vivo at 2.5, 5, 7.5, 15 and 50 mg/kg, dose-dependent

Q: CC(C)c1ccc(N(C)c2ccc3c(c2)OCC[C@H]3CNc2cnccc2C(=O)O)cc1 [Compound 1, 3-({[(4R)-7-{methyl[4-(propan-2-yl)phenyl]amino}-3,4-dihydro-2H-1-benzopyran-4-yl]methyl}amino)pyridine-4-carboxylic acid] was tested. Which IC50 ([1]; 336 h, human bone marrow progenitor cells, 14 days, read-out: IC50, inhibition of myeloid colony formation) did it give?
A: The IC50 was over 5 µM.

Q: And the IC90 [1, 6]?
A: Its IC90 is over 5 µg/mL.

Q: And the IC50 ([1]; 336 h, human bone marrow progenitor cells, colony growth after 14 days, read-out: Myeloid IC50)?
A: The IC50 was over 5 µg/mL.

Q: And the “concentrations at which colony morphology (size and density) was slightly compromised” value ([1]; myeloid derived colonies)?
A: The value was at least 1.67 μM.

Q: And the “effect on colony formation compared to 0.1% DMSO” value [1, 7]?
A: The value was “no significant effect”.

Q: What about the “number of genes up- or downregulated ≥2-fold” value ([2]; RNA-seq, 37.3 mg/kg, diffuse large B-Cell Lymphoma xenografts models) of the same compound?
A: Its value is 326.

Q: What about the “change of PNUTS, ANK1, and IBA57 gene expression” value [2, 8] of the same compound?
A: Its value is “downregulated”.

Q: What about the “change of SOWAHD, MF12-AS1, and CECR1 gene expression” value [2, 8] of the same compound?
A: The value was “upregulated”.

Q: What about the IC50 ([3]; 336 h, human bone marrow progenitor cells, 14 days, read-out: IC50, inhibition of erythroid colony formation) of the same compound?
A: The IC50 was over 5 µM.

Q: What about the IC90 [3, 6] of the same compound?
A: The IC90 was over 5 µg/mL.

Q: And the IC50 ([3]; 336 h, human bone marrow progenitor cells, colony growth after 14 days, read-out: Erythroid IC50)?
A: Its IC50 is over 5 µg/mL.

Q: What about the “concentrations at which colony morphology (size and density) was slightly compromised” value ([3]; erythroid derived colonies) of the same compound?
A: The value was at least 1.67 μM.

Q: And the “effect on colony formation compared to 0.1% DMSO” value [3, 7]?
A: The value was “no significant effect”.

Q: And the “reduction of the proportion of tumorigenic cells (CD44^High;EpCAM^+) compared to vehicle control” value [4]?
A: The value was 2.5 fold.

Q: What about the IC50 (MCF-7; Homo sapiens, MCF7, 168 h) of the same compound?
A: Its IC50 is under 0.04 µM.

Q: And the IC50 (MCF-7; 168 hours)?
A: Its IC50 is 0.037 µM.

Q: And the IC50 ([5]; Homo sapiens, PA0143F pancreatic carcinoma model)?
A: The IC50 was over 10 µM.

Q: What about the IC50 ([5]; PA0143F human pancreatic carcinoma organoid, 144 hrs, Colony Counts) of the same compound?
A: Its IC50 is over 10 µM.

Q: And the IC50 (HT-29; 168 hours)?
A: Its IC50 is 0.0235 µM.

Q: What about the IC50 (HT-29; Homo sapiens, HT-29, 168 h) of the same compound?
A: Its IC50 is under 0.04 µM.

Q: And the IC50 (ZR-75-1)?
A: Its IC50 is over 10 µM.

From patent US20250025451A1, “TREATMENT OF CANCER WITH KDM4 INHIBITORS” (Celgene Corporation, priority 2021, published 2025)
